Reference: US11655216B2 (priority 2016, dated 2023)

Tests used:
[1] = target: T1, glutathione-S-transferase (GST) tagged LXRalpha LBD (ligand binding domain) (Homo sapiens, UniProt Q13133); assay: biochemical; conditions: for EC50: LXR alpha IP; for EC50 / LXR alpha IP: potency (Inflection Point), compound-induced co-activator recruitment, TR-FRET; for Emax: read-out: LXR alpha actiivty at max dose, efficacy (% Emax) in relation to reference dual agonist T0901317
T1 construct: purchased Invitrogen pv4655
T1 sequence (Q13133 209-447 limits assumed): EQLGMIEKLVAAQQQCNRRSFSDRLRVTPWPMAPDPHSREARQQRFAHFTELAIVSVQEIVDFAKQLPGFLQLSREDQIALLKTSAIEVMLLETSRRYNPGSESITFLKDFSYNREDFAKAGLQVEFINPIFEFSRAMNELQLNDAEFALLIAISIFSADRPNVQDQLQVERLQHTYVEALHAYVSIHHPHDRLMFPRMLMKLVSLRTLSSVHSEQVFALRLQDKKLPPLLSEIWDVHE
Summary of the method: (§1)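 Test ligands were combined with the receptor LBD, after which terbium-labelled anti-GST antibody and a fluorescein-tagged coactivator peptide were introduced together. Plates sat at room temperature, then time-resolved FRET was measured.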

[2] = target: T2, glutathione-S-transferase (GST) tagged LXRbeta LBD (ligand binding domain) (Homo sapiens, UniProt P55055); assay: LanthaScreen TR-FRET Liver X Receptor Coactivator Assay, LXR beta; format: biochemical; conditions: for EC50: LXR beta IP, potency (Inflection Point), compound-induced co-activator recruitment, TR-FRET; for Emax: read-out: LXR beta actiivty at max dose, efficacy (% Emax) in relation to reference dual agonist T0901317
T2 construct: purchased Invitrogen pv4658
T2 sequence (P55055 222-460 limits assumed): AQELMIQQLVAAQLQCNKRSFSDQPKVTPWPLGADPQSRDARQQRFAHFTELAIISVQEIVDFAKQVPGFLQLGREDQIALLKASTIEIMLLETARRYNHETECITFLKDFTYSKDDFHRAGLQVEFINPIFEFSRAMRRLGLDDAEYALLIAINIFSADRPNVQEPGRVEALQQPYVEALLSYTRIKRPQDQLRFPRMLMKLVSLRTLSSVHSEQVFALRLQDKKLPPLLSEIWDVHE
Summary of the method: as §1

SMILES | EC50 [1] [nM] | Emax [1] [%] | EC50 [2] [nM] | Emax [2] [%] | LXR alpha IP [1]
CN(C)C(=O)c1ccc(OCCCCC2CCN(S(=O)(=O)c3ccccc3C(F)(F)F)CC2)nc1Cl [Example 7-1, 2-chloro-N,N-dimethyl-6-(4-(1-(2-(trifluoromethyl)phenylsulfonyl)piperidin-4-yl)butoxy)nicotinamide] | 776 | 82 | 36 | 138 | 
CN(C)C(=O)c1ccc(OCCCCC2CCN(S(=O)(=O)c3c(Cl)cccc3Cl)CC2)nc1Cl [Example 7-2, 2-chloro-6-(4-(1-(2,6-dichlorophenylsulfonyl)piperidin-4-yl)butoxy)-N,N-dimethylnicotinamide] | 429 | 80 | 23 | 122 | 
CN(C)C(=O)c1ccc(OCCCCC2CCN(S(=O)(=O)c3ccccc3C#N)CC2)nc1Cl [Example 7-3, 2-chloro-6-(4-(1-(2-cyanophenylsulfonyl)piperidin-4-yl)butoxy)-N,N-dimethylnicotinamide] | 2930 | 57 | 112 | 120 | 
O=C(c1cscn1)N1CCC(CCCCOc2ccc(C(=O)N3CCCC3)c(Cl)c2)CC1 [Example 8-20, (2-chloro-4-(4-(1-(thiazole-4-carbonyl)piperidin-4-yl)butoxy)phenyl) (pyrrolidin-1-yl)methanone] |  | 4 | 4410 | 25 | No IP
CN(C)C(=O)c1ccc(OCCCCC2(C)CCN(C(=O)C3(c4ccccc4)CCCC3)CC2)cc1Cl [Example 9-1, 2-chloro-N,N-dimethyl-4-(4-(4-methyl-1-(1-phenylcyclopentanecarbonyl)piperidin-4-yl)butoxy)benzamide] | 411 | 13 | 51 | 88 | 
CN(C)C(=O)c1ccc(OCCC2CC23CCN(C(=O)C(C)(C)c2ccccc2)CC3)nc1Cl (stereo not drawn) [Example 15-3, 2-chloro-N,N-dimethyl-6-(2-(6-(2-methyl-2-phenylpropanoyl)-6-azaspiro[2.5]octan-1-yl)ethoxy)nicotinamide] | 202 | 67 | 5 | 102 | 
CN(C)C(=O)c1ccc(OCC2CC3(CCN(C(=O)C(C)(C)c4ccccc4)CC3)C2)cc1Cl [Example 33-2, 2-chloro-N,N-dimethyl-4-((7-(2-methyl-2-phenylpropanoyl)-7-azaspiro[3.5]nonan-2-yl)methoxy)benzamide] |  | 8 | 220 | 60 | No IP
CN(C)C(=O)c1ccc(OCCC2CC3(CCN(C(=O)C(C)(C)c4ccccc4)CC3)C2)cc1Cl [Example 34-2, 2-chloro-N,N-dimethyl-4-(2-(7-(2-methyl-2-phenylpropanoyl)-7-azaspiro[3.5]nonan-2-yl)ethoxy)benzamide] | 268 | 25 | 26 | 90 | 
CC(C)(C(=O)N1CCC2(CC1)CC(CCOc1ccc(C(=O)N3CCCC3)c(Cl)c1)C2)c1ccccc1 [Example 34-3, 1-(2-(2-(3-chloro-4-(pyrrolidine-1-carbonyl)phenoxy)ethyl)-7-azaspiro[3.5]nonan-7-yl)-2-methyl-2-phenylpropan-1-one] | 292 | 13 | 70 | 65 | 
